Assay [1] relates to human duodenal organoid cultures. The assay can be described thus: Human duodenal organoid secretion assay: CCK8 and ppCCK(21–44) in supernatants and lysates by LC-MS/MS. In kind it is cell-based. The note with it: 10 μM forskolin + 1 mM glucose vs 1 mM glucose alone, 1 h, 2D human intestinal organoids; similar for both peptides; n = 12 from six experiments in duplicate. How it is done: Human duodenal organoid cultures were established for secretion assays using our established protocol.[16] To improve peptide yield, the cultures were grown in a 6-well plate format, and 400 μL of secretion buffer (0.001% fatty acid-free BSA and 1 mM glucose in saline buffer[16]) was used in the experiments.
Method development, validation, and calibration/quantitation samples were prepared by spiking working solutions of CCK8, CCK33, and ppCCK(21–44) in organoid secretion buffer. For initial CCK detection, lysed organoid cultures were prepared using 6 M guanidine hydrochloride (aq) and snap-frozen prior to extraction.
Based on the experimental design results, the extraction of CCK peptides from organoid lysate and secretion samples was adjusted from previous methods,[16],[17] as per the following steps. […]
To assess CCK secretion, we cultured human intestinal organoids in 2D cultures[16] and collected supernatants and cell lysates after 1 h incubation in either 1 mM glucose or 1 mM glucose and 10 μM forskolin, a known strong stimulus for secretion of a number of gut hormones, including CCK.[17],[18] We were unable to reliably detect sulfated CCK8 in supernatants; however, desulfated CCK8 and ppCCK(21–44) were detected under both culture conditions. […]

The test system of assay [2] is cholecystokinin (CCK8) (26–33), non-sulfated enzyme immunoassay kit. The note with it: reported for the kit; ref EK-069-04, Phoenix Peptide; cited from earlier work. From the text:
(§1) A cholecystokinin (CCK8) (26–33), non-sulfated enzyme immunoassay kit (EK-069-04, Phoenix Peptide, Germany), with 100% reported cross-reactivity with sulfated and non-sulfated CCK8 as well as CCK33 and gastrin, was used for assay validation. The pooled human plasma potassium EDTA anticoagulant (K2EDTA, BioIVT, West Sussex, U.K.) from healthy controls was used as a matrix for the preparation of calibration standards during the clinical sample analysis.

For assay [3] the test system is unchanged. The assay is described as follows: Commercial CCK8 enzyme immunoassay (EK-069-04, Phoenix Peptide): detection and cross-reactivity. The class given is binding. The note with it: 50 to 750 pg/mL spiked in secretion buffer, SPE eluate dried and reconstituted in EIA buffer.
Source text: as §1
We compared the performance of the LC-MS/MS method with a commercially available EIA (EK-069-04, Phoenix Peptide). CCK8 solutions were spiked at different concentrations either alone or in the presence of ppCCK(21–44) into secretion buffer, duplicate samples were extracted as described, and prior to EIA analysis, the SPE eluates were dried under nitrogen and reconstituted in EIA buffer. The concentrations were deduced alongside either extracted calibration curves for LC-MS/MS analysis or non-extracted standard curves as supplied in the EIA kit.

A further assay has as its system CCK1 receptor (CCK1R). Particulars: statement of the introduction; cited from earlier work. The text has this:
Post-translational processing of preproCCK (ppCCK), including tyrosine-sulfation in the trans-Golgi network and subsequent proteolytic cleavage by prohormone convertases and carboxypeptidase E combined with C-terminal amidation by peptidylglycine α-amidating monooxygenase[5],[6] produces a number of different bioactive CCK peptides (Figure 1). For activation of the CCK1 receptor (CCK1R), which largely mediates the peripheral outcomes described above, sulfation of the CCK peptide is critical, and the bioactive products of ppCCK, named after the number of amino acids retained in the final produc ...

Where no end group is shown, it is not given here.

Turning to `C=C[C@@]1(C)CC(=O)[C@]2(O)[C@@]3(C)[C@@H](O)CCC(C)(C)[C@@H]3[C@H](O)[C@H](OC(C)=O)[C@@]2(C)O1` [forskolin], the “fold stimulation of CCK8 and ppCCK(21–44) secretion” value in assay [1] is listed as roughly 2.3 fold.
For “CCK33: 33 amino acid bioactive CCK isoform (KAPSGRMSIVKNLQNLDPSHRISDRDYMGWMDF-NH2; ends and bridges not checked; UniProt P06307 71-103, looked up)”, the “cross-reactivity of the EIA kit” value in assay [2] is 100%.
“[Pyr]-QPVPPADPAGSGLQRAEEAPRRQL-acid [ppCCK(21–44), N-terminal peptide fragment of proCCK, surrogate analyte for CCK secretion]”: the “detection by EIA” value in assay [3] is recorded as “did not detect”.
For the compound “gastrin: closely related peptide hormone sharing the bioactive C-terminus with CCK8”, in assay [2], the “cross-reactivity of the EIA kit” value was 100%. Further, the “activity at CCK1R” value in the assay on CCK1 receptor (CCK1R) is on record as “no activity”.
Regarding “non-sulfated CCK8: CCK8 without tyrosine sulfate, cross-reactant of the EIA kit”, the “cross-reactivity of the EIA kit” value in assay [2] is reported as 100%.

The values are drawn from PMC10476265, “Optimized LC-MS/MS Method for the Detection of ppCCK(21–44): A Surrogate to Monitor Human Cholecystokinin Secretion” (Journal of Proteome Research, 2023).
